# Measured values reported in a melting point compilation (Tetko et al.; mined from patent text by program, amines drawn as free bases though some values may be those of a salt).
row,melting point [°C],Compound
1,108 to 110,c1ccc(CNc2ccncc2)cc1
2,242 to 244,O=C1c2ccccc2-c2c1nc(Cl)c1ccccc21
3,114 to 116,CCCOc1ccc(F)cc1C(N)=O
4,147 to 149,CC(CCc1nnn[nH]1)Oc1cccc(OCc2ccc3ccccc3n2)c1 (stereo not given)
5,56 to 60,C=C(Cc1ccccc1)C(=O)N[C@@H](CC(C)C)C(=O)O
6,109 to 113,CCCC(O)c1ccc(C(=O)O)cc1 (stereo not given)
7,115 to 117,O=C(CCl)NOC(c1ccccc1)c1ccccc1
8,139 to 142,O=C(CNC1CCCCC1)Nc1ccc(C(=O)N2CCCCc3ccccc32)cc1
9,211 to 214,Cc1ccc2c(c1)c1c(n2C(=O)c2ccc(Cl)cc2)CCC(C(=O)O)C1 (stereo not given)
10,192 to 193,C[C@@H]1Cc2cc(N3C[C@H](CN=[N+]=[N-])OC3=O)ccc2N1C(=O)OCc1ccccc1
11,114 to 121,CCN(CC)CCCOc1cccc(-c2oc3ccccc3c2C(=O)c2cc(C)cc(C)c2)c1
12,138 to 139,COc1ccc(CNCCCOc2ccc(NC(=O)c3cccc4c(=O)c5ccccc5[nH]c34)cc2)cc1OC
13,166 to 168,CC1(C)C(C(=O)OCC(Cl)(Cl)Cl)N2C(=O)C(NC(=O)Cc3ccccc3)C2S1=O (stereo not given)
14,203 to 206,COc1ccc2c3c(c(=O)oc2c1)CN(Cc1ccc(C(F)(F)F)cc1)CC3
15,144 to 145,Cc1cc(OCc2cn(-c3ccc(C(F)(F)F)cn3)nc2C)ccc1CCC(=O)O
16,80 to 81,CCc1ccc(C(=O)C=CN(C)C)cc1
17,213 to 214,CC(C)(C)c1cc(C(=O)O)ccc1OCc1ccccc1
18,68 to 72,COc1ccc(Cc2ccc(CO)cc2)cc1
19,170 to 171,CCOc1cc(-c2ccccc2)nc2nn(C)cc12
20,> 275,CN1C(=O)C(C)(C)C(=O)N(C)c2cc(C(=O)O)ccc21
21,161 to 162,O=C(NCCO)c1cccc(-c2cccc3c2OC(Cc2cccc(C(F)(F)F)c2)C3)c1 (stereo not given)
22,169 to 171,CC(C)(C)OC(=O)N1CCC(c2nc3cc(-c4ccc(C(N)=O)c(Cl)c4)ccc3o2)CC1
23,114 to 117,CC(=O)c1ccc(NS(C)(=O)=O)c(Sc2ccc(F)cc2F)c1
24,215,CCC1(c2ccc(Cl)cc2)OCc2c1cnc(C)c2O (stereo not given)

row,melting point [°C],Compound
1,69 to 71,CCCc1c(OCCCC(=O)NCCCCCCc2cccnc2)ccc(C(C)=O)c1O
2,106 to 109,CCCCCCCCCCOc1cc(OCCCOc2ccc(O)cc2)cc(C(=O)O)c1
3,197 to 198,CC(C)NC(=S)Nc1cccc(NC(=O)Nc2ccc(Cl)cc2)c1
4,132,O=S(=O)(Nc1ccc(Cl)nc1I)c1ccccc1
5,151 to 154,CC(=O)Oc1ccc(CC(CC(=O)O)N2C(=O)c3ccccc3C2=O)cc1 (stereo not given)
6,155 to 158,Nc1nc(C2CCN(C(=O)c3ccccc3)CC2)c2cc(Cl)ccc2n1
7,124 to 125,O=C(Oc1cc(OC(=O)c2ccccc2)c(Cl)cn1)c1ccccc1
8,88 to 90,CSc1ccc(-c2c(Cl)nc(Cl)nc2-c2ccccc2)cc1
9,188 to 189,O=C(c1ccccc1)c1cccc2c(CC(C(=O)O)C(=O)O)c[nH]c12
10,189 to 190,O=C(O)CCCC(=O)Nc1cccc(-c2ccnc3c(C(=O)c4cccs4)cnn23)c1
11,236 to 237,Cn1nc(-c2cccc(N3Cc4cc(C(C)(C)C)ccc4C3=O)c2CO)cc(Nc2ccccn2)c1=O
12,93 to 94,COC(=O)c1cccc(COc2cccc(OCc3ccc4ccccc4n3)c2)c1
13,119 to 122,Nc1nc2c(s1)CC(NC(=O)CNC(=O)[C@@H](Cc1ccccc1)NS(=O)(=O)Cc1ccccc1)CC2 (stereo not given in full)
14,234 to 236,CCCCc1ncc(/C=C(\Cc2cccs2)C(=O)O)n1Cc1ccc(C(=O)O)cc1Cl
15,191,Cn1nc(C(F)(F)F)c(C(=O)Nc2ccccc2)c1-c1ccccc1O
16,205,Cc1cccc(NC(=O)NCC(=O)N(CC(=O)N2CCC(C)(C)CC2)c2ccccc2)c1
17,150 to 153,NNC(=O)OCC1c2ccccc2-c2ccccc21
18,78 to 80,O=C(NCCCCCCOC(=O)Oc1ccc([N+](=O)[O-])cc1)OC1CCN(C(=O)OCc2ccccc2)CC1
19,66 to 68,O=C1C(Cc2ccccc2)CCCCCC1Cc1ccccc1 (stereo not given)
20,74 to 76,CC(Oc1ccc(-c2cccc(C(N)=O)c2)cc1)C(O)CCc1cccnc1 (stereo not given)
21,120 to 130,CN1C(=O)CCC1(O)c1ccc(Cl)c(S(=O)(=O)Nc2cc(C(C)(C)C)c(O)c(C(C)(C)C)c2)c1 (stereo not given)
22,158 to 162,Cc1ccc(C)c2c(C=O)c3ccccc3c(C=O)c12
23,131,Cc1nc(-c2ccc(Cl)cc2)sc1C(=O)NCc1ccc(OC(C)(C)C(=O)O)cc1

# More lines, now with the values behind:
row,Compound,melting point [°C]
1,Cc1cc(N)c(S(N)(=O)=O)cc1-c1ccccn1,229 to 231
2,C=CCN(C(=O)C(C#N)=CNC(=N)N1CC(C)(C)NC1=O)c1cccc(C(F)(F)F)c1,184 to 185
3,CCN1C(=O)N(c2cc(OC)cc(OC)c2Cl)Cc2cnc(SC)nc21,189 to 191
4,O=C(O)c1cn(O)c2ccc3[nH]c(=O)sc3c2c1=O,> 300
5,CC(=O)NCCC1CNc2ccc3c(c21)CCCO3 (stereo not given),137 to 138
6,CC(=O)OC1CCC2(C)C(=CCC3C4CC(OC(C)=O)C(=O)C4(C)CCC32)C1 (stereo not given),173 to 174
7,Cc1nc2c(c3c1[nH]c1ccc(F)cc13)C(=O)CC(C)(C)C2,229 to 230
8,COc1cc(N)c(Cl)cc1C(=O)N[C@H]1CCN(CCCNc2nc3ccccc3s2)C[C@H]1OC (relative stereo),162
9,CCc1cnc(C2=NC(C)(C(C)C)C(=O)N2)c(C(=O)NCCCCCC(=O)OC)c1 (stereo not given),101 to 103
10,COc1ccc(C=NO)c(Cl)c1O,174 to 176
11,Cn1c(=O)cc(CCCl)c2cc(Cl)ccc21,120 to 122
12,CCCCn1c(-c2ccccc2)c(Cc2c(O)ccc3ccccc23)c(=O)[nH]c1=S,201 to 203
13,COc1cccc(OC)c1CN1C(=O)C2CCCN2c2ncccc21 (stereo not given),200 to 202
14,Cc1c(NC(=O)c2ccc(-c3ccc(F)cc3)cc2)ccc2cc(CN3CCCCC3)cnc12,188 to 190
15,CCCCCCc1ccc(-n2c(-c3ccc(CC(=O)O)cc3)ccc2-c2ccc(CC(=O)O)cc2)cc1,129 to 130
16,Clc1ccc(-c2n[nH]c(-c3ccncc3)n2)cc1,264 to 266
17,COc1cc2c3c(c1)c(N)c(C(=O)N1CCc4ccccc41)c(=O)n3CCO2,130 to 140
18,C#CCOc1ccc(OCC2OC2(C)C)cc1 (stereo not given),72 to 73
19,O=c1c2cccnc2n(-c2cccc([N+](=O)[O-])c2)c(=O)n1Cc1ccncc1,207 to 209
20,COc1ccc(S(=O)(=O)N(C)C)c(S(N)(=O)=O)c1,106 to 109
21,CS(=O)(=O)c1ccc(C2=C(c3ccc(F)cc3)C(=O)OC2)c(F)c1,160 to 162
22,O=C(CCC1CCCCCCCCCCC1=O)C1=C(O)CSC1=O (stereo not given),93 to 95
23,O=[N+]([O-])c1ccc2c(c1)NCC(C(F)F)(C(F)F)O2,150 to 152
24,NC(=O)Cc1cc(Oc2ccc3c(ccn3C(=O)Nc3ccc(CN4CCNCC4)c(C(F)(F)F)c3)c2)ncn1,173 to 180
25,NCc1nnc(-c2ncn3c2[C@@H]2CCCN2C(=O)c2sccc2-3)o1,214 to 216
26,Cn1nc(-c2c(Cl)cccc2Cl)nc1-c1sc(Br)c(Cl)c1Cl,197 to 199
27,COc1cc2c(cc1Nc1ncc(Cl)c(Nc3ccccc3-n3cccn3)n1)CCN(CC(=O)N(C)C)CC2,66 to 67

row,Compound,melting point [°C]
1,Cc1oc(-c2ccco2)nc1CCOc1ccc(N)cn1,88 to 90
2,COc1ccc2cc(CN(C)C(=O)c3cn(C)c4ccccc34)ccc2c1Br,168 to 169
3,Cc1cc(C(O)=S)cc(N)c1Cl,225
4,CN1CCN(C(=O)c2ccc(-c3ccc4nnn(Cc5ccc6ncccc6c5)c4n3)cc2)CC1,156 to 158
5,CCOc1ncc(S(C)(=O)=O)cc1C(=O)O,175 to 176
6,O=C(CN1CCCCC1)Nc1ccc([N+](=O)[O-])cc1,144 to 145
7,C1=C(c2ccccc2)CC(CN2CCN(c3ccccn3)CC2)C1 (stereo not given),100 to 101
8,c1ccc(Sc2ccc(-c3ccc(Sc4ccccc4)cc3)cc2)cc1,116 to 117
9,CC(C)Oc1c(C(=O)Nc2nnn[nH]2)sc2c1CS(=O)(=O)CC2,230 to 232
10,CC12CCC(OC(=O)c3ccccc3)CC1=CCC1C2CCC2(C)C(=NO)CCC12 (stereo not given),165 to 170
11,COC(=O)C(=O)Nc1ccc(C#N)c(NC(=O)C(=O)OC)c1,155 to 160
12,CC(=O)NNc1nc(O)nc(-c2ccc(Cl)cc2)n1,250
13,OCC1OC(n2c(Cl)c(-c3ccsc3)c3cc(Cl)c(Cl)cc32)C(O)C1O (stereo not given),152 to 153
14,COc1ccc(-n2cnc3ccc(-c4nnc(SCc5ccc(OC)c(C(F)(F)F)c5)o4)cc32)cc1,163 to 164
15,CN1C(=O)CC[C@]2(C)c3ccc(-c4nc5ccccc5[nH]4)cc3CC[C@@H]12,183 to 186
16,CCCS(=O)(=O)Oc1ccc(-c2nc3cc4c(cc3[nH]2)C(C)(C)CC(=O)N4)cc1,148 to 156
17,O=C(O)c1cc(Br)no1,176 to 177
18,CCCCCC(=O)NC[C@@H]1CN2C(=O)C[C@H]2O1 (racemic),56 to 57
19,Oc1ccc2c(c1)CCCC(c1ccccc1)=C2c1ccc(OCCCCSCc2ccccn2)cc1,155
20,CC(C)CNC(=O)/C=C/C=C/CCCCCCOCc1cccc(C(F)(F)F)c1,48 to 50
21,CC(=O)OC1CSC(Oc2cccnc2-c2cncnc2)C(OC(C)=O)C1OC(C)=O (stereo not given),205
22,Cc1cccc(-n2nc(C)c3c(=O)c4cc(F)c(F)cc4[nH]c32)n1,301 to 302
23,CCCCCCCCCCCC1CCC(O)C(=O)O1 (stereo not given),95 to 96
24,CC1(C)CCC(C)(C)c2cc3c(cc21)C(C)(C)CCC3(C)C,218 to 221
25,CCCCCCCCCCCCOC(=O)COCC(=O)O,57 to 59
26,CSc1ccc2ccc(Br)cc2c1,80 to 81
